Values of other authors in patent US20070224292A1, “Extended effect ergogenic drink” (priority 2006, published 2007).
Like-named read-outs stand apart in the source and are kept apart here. One block for each molecule: values may come before it.

Experiments:
[1] = for time to reach peak serum concentrations: following ingestion
[2] = immediate-release nicotinic acid
[3] = in vivo
[4] = animals; given at the same time as vitamin C
[5] = three women; 1 mg chromium with 100 mg vitamin C versus 1 mg chromium without vitamin C
[6] = 200 to 400 mcg chromium three times per day, polynicotinate or picolinate form
[7] = first fifteen minutes of exercise
[8] = during exercise in normal subjects
[9] = visual monitoring test simulating night driving
[10] = after two hours; males (but not females)

time to reach peak serum concentrations ([1]; extended-release form): 4 to 5 h
half-life ([1]; immediate release Niacin): approximately 1 hour
time to reach peak serum concentrations ([1]; immediate-release or crystalline form): approximately 45 minutes
duration of flushing [2]: up to one
time to onset of flushing following ingestion [2]: ≤ 20 min
Molecule: O=C(O)c1cccnc1 [Niacin, Nicotinic acid]

Molecule: Chromium Polynicotinate
effect on blood lipid levels [3]: lower blood lipid levels

Molecule: [Cr] [Chromium]
chromium uptake [4]: enhanced
plasma levels of chromium [5]: higher plasma levels of chromium
effect on insulin sensitivity [6]: improve insulin sensitivity

Molecule: Cn1c(=O)c2c(ncn2C)n(C)c1=O [Caffeine]
reduction of the loss of glycogen [7]: fifty
circulating free fatty acids and glycerol [8]: increase circulating free fatty acids and glycerol
effect on attention lapses [9]: prevent attention lapses
CNS stimulation compared to placebo [10]: lower CNS (Central Nervous System) stimulation
time to reach peak levels in the bloodstream (absorbed through stomach and small intestine): 15 to 45 min
half-life, women taking oral contraceptives (women taking oral contraceptives): up to 12 hours
